Converted amounts (≈) assume the structure as drawn. Where two headings read alike, the source gives them in different places. Values belong to the compound of their own block, whether it stands above or below them.
What was measured:
[1] = tested on: kidney tubulointerstitial fibrosis caused by unilateral ureteral obstruction (UUO) in rats; assay: Inhibition of kidney tubulointerstitial fibrosis caused by unilateral ureteral obstruction (UUO) in rats; format: in vivo, Male Wistar rats; details: UUO rats; for BUN: oral for 16 days
Description: Male Wistar rats with initial body weights of 180˜230 g were used. Unilateral ureteral obstruction was performed under pentobarbital anesthesia (35 mg/kg) and sterile conditions. Via a midline incision, the left ureteral was ligated. Sham surgery was performed by making a midline incision but leaving ureteral intact. Following surgery, rats were randomly divided into sham, model, Benazepril (4 mg/kg/day) and Losartan (10 mg/kg/day) as positive control, and compound 149 (5 mg/kg/day, 10 mg/kg/day and 20 mg/kg/day). Starting 2 day before surgery, Benazepril, Losartan and compound 149 were administered for 16 days orally. BUN and creatinine in serum were determined in the 11th and 16th day (Table 6) following initiation of Benazepril, Losartan and compound 149 treatment, at which time animals were killed and the kidneys were harvested. Tissues were dissected, weighed, fixed in 10% formaldehyde and embedded in paraffin wax for pathological analysis.

[2] = tested on: chronic renal failure induced by 5/6 nephrectomy in rats; format: in vivo, Male Wistar rats
Description: The model on chronic renal failure induced by partial renal ablation in rats was set up according to the Guidelines of Pre-clinic Research for New Drugs. Male Wistar rats with initial body weights of 200 g, anesthetized with 35 mg/kg of pentobarbital i.p., the right kidney was removed, and the upper and lower pole […] of the left kidney were resected, stop bleeding, closed the abdominal and sutured. Four weeks following surgery, the BUN, creatinine and urinary protein in rats were determined. […] Rats were randomly divided into seven groups, 30/group, with sham, model, Benazepril (4 mg/kg/day) and Losartan (10 mg/kg/day) as positive control, and compound 149 groups (7.5 mg/kg/day, 15 mg/kg/day and 30 mg/kg/day, respectively). All the groups were administered intragastrically, once per day and 6 (six) times per week, till 16 weeks post surgery. Body weights were weighed to observe the growth of the rats. The above indexes were determined every 4 weeks up to the 16th week following the initiation of drug administration, and at each time, a number of animals were sacrificed and the kidneys were harvested for pathological analysis. Pathological lesions in chronic renal failure models are mainly glomerulosclerosis and interstitial fibrosis. According to the damage extents, glomerulosclerosis is divided into five grades (0 IV). 0 grade means no glomerulus pathological changes at all, and IV grade means ultimately glomerular sclerosis and glassy pathological changes.

[3] = tested on: TGF-β receptor; assay: TGF-β receptor binding antagonism assay ([125I]TGF-β1) in Balb/c 3T3 cells; details: for Inhibition Rate (%): 10 μg/ml, 50 pmol/L [125I]TGF-β1
Description: Balb/c 3T3 cells were seeded in 24 well-plate and cultured in Dulbecco's modified Eagle's medium (DMEM) supplemented with 10% fetal bovine serum, in 37° C. and 5% CO2, for 2-4 days. When cells were at a near-confluent, medium was changed to the binding buffer (50 mmol/L HEPES containing NaCl, KCl, MgSO4 and CaCl2). The assay was initiated by addition of 50 pmol/L [^125I]TGF-β1 and test compounds. After incubation for 210-240 minutes, the medium was removed, and cells were washed with ice-cold binding buffer. Non-specific bindings in the presence of 10 nmol/L TGF-β1 were determined. The cells were then solubilized using buffer containing Triton X-100 and the radioactivity was measured (see Table 4).

[4] = 8th week after administration (12 weeks after nephrectomy), 4 mg/kg
[5] = 8th week after administration (12 wk after nephrectomy), 4 mg/kg
[6] = 12th week after administration (16 weeks after nephrectomy), 4 mg/kg
[7] = 12th week after administration (16 wk after nephrectomy), 4 mg/kg
[8] = 16 weeks after nephrectomy (12 weeks since administration), 4 mg/kg/day
[9] = 8th week after administration (12 weeks after nephrectomy), 10 mg/kg
[10] = 8th week after administration (12 wk after nephrectomy), 10 mg/kg
[11] = 12th week after administration (16 weeks after nephrectomy), 10 mg/kg
[12] = 12th week after administration (16 wk after nephrectomy), 10 mg/kg

- melting point: 176 °C
SMILES: CCOC(=O)c1cc2cc([N+](=O)[O-])c(O)c([N+](=O)[O-])c2oc1=O

- melting point: 152 °C
SMILES: CCOC(=O)c1cc2cc([N+](=O)[O-])c(OC)c([N+](=O)[O-])c2oc1=O

SMILES: CCOC(=O)[C@H](CCc1ccccc1)N[C@H]1CCc2ccccc2N(CC(=O)O)C1=O [Benazepril, reference compound]
- inflammatory cell infiltration and tubulointerstitial fibrosis (pathological changes) [1]: more significant
- animals with focal abscess formations in the medulla of kidney ([1]; 4 mg/kg/day): 4/7
- BUN ([1]; 4.0 mg/kg): 20.99 ± 1.58 mg/dL
- BUN [2, 4]: 37.66 ± 8.895 mg/dL
- serum creatinine (Scr.) [2, 4]: 3.54 ± 1.140 mg/dL
- AII (Angiotensin II) [2, 5]: 74.3 ± 13.2 pg/mL
- UP (urinary protein) [2, 5]: 51.1 ± 23.6 mg/day
- serum TGF-β1 [2, 5]: 40.9 ± 26.6 ng/mL
- Glomerulosclerosis Grade (%): 0 ([2]; 8 wk after ad., 4 mg/kg/day): 12.2 ± 19.0%
- Glomerulosclerosis Grade (%): I ([2]; 8 wk after ad., 4 mg/kg/day): 29.6 ± 23.9%
- Glomerulosclerosis Grade (%): II ([2]; 8 wk after ad., 4 mg/kg/day): 28.1 ± 18.1%
- Glomerulosclerosis Grade (%): III ([2]; 8 wk after ad., 4 mg/kg/day): 19.6 ± 24.2%
- Glomerulosclerosis Grade (%): IV ([2]; 8 wk after ad., 4 mg/kg/day): 5.9 ± 11.2%
- Glomerulosclerosis Total Grade ([2]; 8 wk after ad., 4 mg/kg/day): 5.5 ± 2.6
- BUN [2, 6]: 39.48 ± 7.109 mg/dL
- serum creatinine (Scr.) [2, 6]: 2.28 ± 0.70 mg/dL
- AII (Angiotensin II) [2, 7]: 47.8 ± 12.0 pg/mL
- UP (urinary protein) [2, 7]: 66.3 ± 31.9 mg/day
- serum TGF-β1 [2, 7]: 12.8 ± 14.8 ng/mL
- inflammatory cell infiltration in kidney tissues ([2]; 12 weeks after nephrectomy (8 weeks since administration), 4 mg/kg/day, some animals): severe
- Glomerulosclerosis Grade (%): 0 ([2]; 12 wk after ad., 4 mg/kg/day): 0%
- Glomerulosclerosis Grade (%): I ([2]; 12 wk after ad., 4 mg/kg/day): 0%
- Glomerulosclerosis Grade (%): II ([2]; 12 wk after ad., 4 mg/kg/day): 19.1 ± 27.1%
- Glomerulosclerosis Grade (%): III ([2]; 12 wk after ad., 4 mg/kg/day): 46.2 ± 15.6%
- Glomerulosclerosis Grade (%): IV ([2]; 12 wk after ad., 4 mg/kg/day): 34.8 ± 29.9%
- Glomerulosclerosis Total Grade ([2]; 12 wk after ad., 4 mg/kg/day): 9.8 ± 1.4
- glomerulus pathological score, rank among groups [2, 8]: the highest
- inflammatory cell infiltration in kidney matrix [2, 8]: medium-severe

- melting point: > 300 °C
- IC50 [3]: 13.8 µg/mL (≈ 40.7 µM)
SMILES: COc1ccc2cc(C(=O)Nc3cccc(C(=O)O)c3)c(=O)oc2c1 [Compound 2, 3-(m-carboxyphenylamidocarbonyl)-7-methoxycoumarin]
- Inhibition Rate (%) [3]: 74.1%

- melting point: 279 °C (dec.)
- IC50 [3]: 7.8 µg/mL (≈ 22 µM)
SMILES: COc1ccc2cc(C(=O)Nc3ccc(C(=O)O)c(O)c3)c(=O)oc2c1 [Compound 7, 3-(3′-hydroxy-4′-carboxyphenylamidocarbonyl)-7-methoxy coumarin]
- Inhibition Rate (%) [3]: 94.2%

- melting point: 266 °C
- IC50 [3]: 8.5 µg/mL (≈ 22.2 µM)
SMILES: CCc1cc2cc(C(=O)Nc3ccc(C(=O)O)c(O)c3)c(=O)oc2cc1OC [Compound 26, 3-(3′-hydroxy-4′-carboxy-phenylamidocarbonyl)-6-ethyl-7-methoxy-coumarin]
- Inhibition Rate (%) [3]: 95.4%

SMILES: CCc1cc2cc(C(=O)Nc3ccc(O)c(C(=O)O)c3)c(=O)oc2cc1OC [Compound 27, 3-(3′-carboxy-4′-hydroxy-phenylamidocarbonyl)-6-ethyl-7-methoxy-coumarin]
- Inhibition Rate (%) [3]: 77.2%

SMILES: COc1ccc2cc(C(=O)Nc3ccc(S(=O)(=O)Nc4cc(C)on4)cc3)c(=O)oc2c1C [Compound 55]
- Inhibition Rate (%) [3]: 52.3%

SMILES: COc1ccc2cc(C(=O)Nc3ccc(S(=O)(=O)NC(=N)N)cc3)c(=O)oc2c1OC [Compound 66, 3-(4′-guanidinosulfonylphenylamidocarbonyl)-7,8-dimethoxy-coumarin]
- Inhibition Rate (%) [3]: 52.3%

SMILES: COc1cc2oc(=O)c(C(=O)Nc3ccc(C(=O)O)c(O)c3)cc2cc1Cl [Compound 87, 3-(3′-hydroxy-4′-carboxy-phenylamidocarbonyl)-6-chloro-7-methoxy-coumarin]
- Inhibition Rate (%) [3]: 91.1%

- melting point: > 300 °C
- IC50 [3]: 5.3 µg/mL (≈ 13.6 µM)
SMILES: COc1cc2oc(=O)c(C(=O)Nc3ccc(O)c(C(=O)O)c3)cc2cc1Cl [Compound 88, 3-(3′-carboxy-4′-hydroxy-phenylamidocarbonyl)-6-chloro-7-methoxy-coumarin]
- Inhibition Rate (%) [3]: 111.2%

SMILES: COc1cc2oc(=O)c(C(=O)Nc3ccc(S(=O)(=O)NC(=N)N)cc3)cc2cc1Cl [Compound 92, 3-(4′-guanidinosulfonylphenylamidocarbonyl)-6-chloro-7-methoxy-coumarin]
- Inhibition Rate (%) [3]: 106.4%

SMILES: COc1cc2oc(=O)c(C(=O)Nc3ccc(C(=O)O)c(O)c3)cc2cc1Br [Compound 96, 3-(3′-hydroxy-4′-carboxy-phenylamidocarbonyl)-6-bromo-7-methoxy-coumarin]
- Inhibition Rate (%) [3]: 82.3%

SMILES: COc1ccc2cc(-c3nnc(-c4ccccc4)o3)c(=O)oc2c1 [Compound 206, 3-(2′-phenyl-1′,3′,4′-oxadiazol-5′yl)-7-methoxycoumarin]
- Inhibition Rate (%) [3]: −0.7%

- melting point: 191 °C
SMILES: CCOC(=O)c1cc2cc([N+](=O)[O-])c(OC)c(OC)c2oc1=O [Compound 227, 3-ethoxycarbonyl-6-nitro-7,8-dimethoxy-coumarin]

- melting point: 143 °C
SMILES: CCOC(=O)c1cc2cc(CC)c(O)c([N+](=O)[O-])c2oc1=O [Compound 233, 3-ethoxycarbonyl-6-ethyl-7-hydroxy-8-nitro-coumarin]

- melting point: 195 °C
SMILES: CCOC(=O)c1cc2cc(Cl)c(O)c([N+](=O)[O-])c2oc1=O [Compound 241, 3-ethoxycarbonyl-6-chloro-7-hydroxy-8-nitro-coumarin]

SMILES: CCCCc1nc(Cl)c(CO)n1Cc1ccc(-c2ccccc2-c2nn[nH]n2)cc1 [Losartan, reference compound]
- inflammatory cell infiltration and tubulointerstitial fibrosis (pathological changes) [1]: significantly attenuated
- BUN ([1]; 10.0 mg/kg): 23.88 ± 2.94 mg/dL
- BUN [2, 9]: 25.64 ± 5.116 mg/dL
- serum creatinine (Scr.) [2, 9]: 2.34 ± 0.268 mg/dL
- AII (Angiotensin II) [2, 10]: 96.7 ± 32.1 pg/mL
- UP (urinary protein) [2, 10]: 32.7 ± 10.3 mg/day
- serum TGF-β1 [2, 10]: 18.7 ± 9.2 ng/mL
- Glomerulosclerosis Grade (%): 0 ([2]; 8 wk after ad., 10 mg/kg/day): 54.4 ± 29.2 %
- Glomerulosclerosis Grade (%): I ([2]; 8 wk after ad., 10 mg/kg/day): 31.9 ± 20.0%
- Glomerulosclerosis Grade (%): II ([2]; 8 wk after ad., 10 mg/kg/day): 13.7 ± 14.0%
- Glomerulosclerosis Grade (%): III ([2]; 8 wk after ad., 10 mg/kg/day): 1.1 ± 3.3 %
- Glomerulosclerosis Grade (%): IV ([2]; 8 wk after ad., 10 mg/kg/day): 0%
- Glomerulosclerosis Total Grade ([2]; 8 wk after ad., 10 mg/kg/day): 2.8 ± 1.0
- BUN [2, 11]: 37.84 ± 5.672 mg/dL
- serum creatinine (Scr.) [2, 11]: 2.21 ± 0.48 mg/dL
- AII (Angiotensin II) [2, 12]: 38.9 ± 17.4 pg/mL
- UP (urinary protein) [2, 12]: 39.3 ± 14.2 mg/day
- serum TGF-β1 [2, 12]: 11.8 ± 12.6 ng/mL
- Glomerulus pathological scores, compared with the model group ([2]; 12 weeks after nephrectomy (8 weeks since administration), compound 149 30 mg/kg, Losartan 10 mg/kg/day): less than that of the model group significantly
- rates of 0 grade glomerylus in residual kidney, compared with the model group ([2]; 12 weeks after nephrectomy (8 weeks since administration), compound 149 30 mg/kg, Losartan 10 mg/kg/day, P<0.05): higher than that of the model group with significant difference
- Glomerulosclerosis Grade (%): 0 ([2]; 12 wk after ad., 10 mg/kg/day): 0%
- Glomerulosclerosis Grade (%): I ([2]; 12 wk after ad., 10 mg/kg/day): 10.0 ± 2.9%
- Glomerulosclerosis Grade (%): II ([2]; 12 wk after ad., 10 mg/kg/day): 45.7 ± 17.7%
- Glomerulosclerosis Grade (%): III ([2]; 12 wk after ad., 10 mg/kg/day): 41.9 ± 25.6%
- Glomerulosclerosis Grade (%): IV ([2]; 12 wk after ad., 10 mg/kg/day): 2.8 ± 4.8%
- Glomerulosclerosis Total Grade ([2]; 12 wk after ad., 10 mg/kg/day): 7.2 ± 1.3
- number of grade III glomerulus, compared with the model group ([2]; 16 weeks after nephrectomy (12 weeks since administration), compound 149 30 mg/kg (P<0.01), Losartan 10 mg/kg/day (P<0.05)): less than that of the model group significantly

— patent publication US8338401B2, “Coumarin-amide derivatives and its preparation, said drug composition and its use” (Institute of Materia Medica Chinese Academy of Medical …, priority 2002, dated 2012)
